Experimental data: US9301923B2, “Lipids, lipid compositions, and methods of using them” (NOVARTIS AG, priority 2009, dated 2016)

Tests used:
[1] = Particle size and PDI by dynamic light scattering (Malvern Zetasizer); format: physicochemical; parameters: Final size: unit not given here; settings: for Final size: LNP formulation
Outline: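 Nanoparticles diluted in PBS to a count rate of about 200-400 kcts and measured by dynamic light scattering; size given as intensity-weighted average diameter, with polydispersity index from the same measurement.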

[2] = pKa of the lipid by TNS fluorescence; format: physicochemical; settings: pKa
Outline: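 Lipid dissolved in ethanol (2 mM stock) and measured with TNS across eight buffers of differing pH, in water at standard temperature and pressure. Normalized fluorescence intensity plotted against pH and points joined by a smooth line to derive pKa, precise to about 0.2 units.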

[3] = system: PLK-1 mRNA in HepG2 tumors; experiment: HepG2 tumor study, PLK-1 mRNA KD in tumor tissue; format: in vivo, human; settings: Mus musculus, HepG2, iv, 24 h, HepG2 tumor in nude mice, 3 × 3 mg/kg siRNA iv, tumors harvested 24 hrs after the last dose; read-out: PLK1 % inhibition
Description: (§1) Formulated siRNAs are made up of double stranded siRNA sequences specific to a target mRNA sequence, and are in the form of lipid nucleotid particles (LNPs) containing cationic lipids, stealth lipids and neutral lipids, as provided in the Examples below. The siRNA construct for use in targeting the liver is specific to Factor VII. The siRNA construct for use in targeting tumors is specific to PLK1-424, which is published by Judge et al., See, J Clin Invest. 2009 March; 119(3):661-73; doi: 10.1172/JCI37515). • 1. FVII siRNA duplex sequence
HepG2 tumors are established in female nude mice by sc injection of 5×10^6 cells in 100 ul PBS into the left flank. Mice are randomized into treatment groups 10-14 days after seeding as tumors reached an average size of 150 mm^3. siRNA formulated LNP formulations are administered at 3×3 mg/kg dose levels intravenously via the lateral tail vein calculated on a mg siRNAs/kg basis according to individual animal weights (10 ml/kg injection volume). Mice are euthanized by CO2 inhalation at various time points and the tumors are harvested 24 hrs after the last dose for mRNA quantitation. Lipids with a wide range of pKa (5.3-6.6) are used in the LNP formulations. Tumors are measured in 2 dimensions (width×length) to assess tumor growth using digital calipers. Tumor volume is calculated using the equation [a×b×b/2], where a=largest diameter and b=smallest diameter.
About 30-50 mg tumor tissue is homogenized in tissue lysis buffer in a Qiagen homogenizer followed by centrifugation to clarify lysates. Total RNA is isolated using RNeasy isolation kit (catalog number 74106) according to the manufacture's protocol. PLK-1 mRNA is analyzed by quantitative PCR and normalized to human GAPDH. Applied Biosystems human PLK-1 gene expression assay Hs00983229_m1 and human GAPDH endogenous control cat number 4326317E are used for mRNA detection.
The pKa in all tables refers to the pKa of the cationic lipid. Where multiple doses are indicated (e.g., 3×5), the first number indicates the number of doses given and the second number indicates the amount per dose in mg siRNA (biologically active agent) per kg mouse. In general the multiple doses are administered at 24 hour intervals, and tissues for mRNA quantitation are harvested 24 hours after the last dose.

[4] = system: PLK-1 mRNA in Hep3B tumors; experiment: Hep3B tumor study, PLK-1 mRNA KD in tumor tissue; format: in vivo, human; settings: for PLK1 inhibition %: Hep3B tumor, mouse, i.v., LNP composition as in the source; for % KD: Table 9 experiment
[5] = system: PLK-1 mRNA in 786-0 tumors; experiment: 786-0 renal tumor study, PLK-1 mRNA KD in tumor tissue; format: in vivo, human; settings: tumors collected 48 hrs after the single dose, read-out: PLKI % Inhibition
Description: as §1
786-0 tumors are established as described before by sc injection of 10×10^6 cells in 200 ul PBS. 4 weeks post implantation, the mice with the tumor size ranging from 200-250 mm^3 are randomized into treatment groups. siRNA formulated LNPs are then intravenously administered at either 5 or 10 mg/kg dose levels. 48 hrs after the single dose, tumors are collected for mRNA quantitation.
About 30-50 mg tumor tissue is homogenized in tissue lysis buffer in a Qiagen homogenizer followed by centrifugation to clarify lysates. […] PLK-1 mRNA is analyzed by quantitative PCR and normalized to human GAPDH. […]
The pKa in all tables refers to the pKa of the cationic lipid. […] In general the multiple doses are administered at 24 hour intervals, and tissues for mRNA quantitation are harvested 24 hours after the last dose.

Factor VII = Factor VII activity assay, in vivo liver delivery of FVII siRNA LNP; parameters: species or system mouse; settings: dose 1 mg/kg siRNA i.v., ~48 h; lipid/no neutral lipid/CHOL/GM-020 NOF 60/0/36/4, N/P 3
Outline: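 Female CD-1 mice (~25 g) given a single i.v. tail-vein dose of FVII siRNA in LNPs (cationic, stealth, neutral lipids), dosed as mg siRNA/kg. Plasma collected ~48 h post-injection; FVII activity read against a standard curve from pooled vehicle-control plasma.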

[6] = LNP formulation with PLK1 siRNA, helper, neutral and stealth lipid, molar ratio and N/P as in the table, stealth lipid S004, molar ratio 50/43/5/2, N/P 4
[7] = LNP formulation with PLK1 siRNA, helper, neutral and stealth lipid, molar ratio and N/P as in the table, stealth lipid S004, molar ratio 50/48/2, N/P 4
[8] = LNP formulation with PLK1 siRNA, helper, neutral and stealth lipid, molar ratio and N/P as in the table
[9] = LNP formulation with PLK1 siRNA, helper, neutral and stealth lipid, molar ratio and N/P as in the table, stealth lipid S004, molar ratio 45/43/10/2, N/P 4
[10] = lipid/no neutral lipid/CHOL/GM-020 NOF 60/0/36/4, N/P 3

## CCCCCCCC/C=C\CCCCCCCCOCC(CN1CCCCC1)OCCCOC(=O)CCC(=O)O[C@H]1CC[C@@]2(C)C(=CC[C@H]3[C@@H]4CC[C@H]([C@H](C)CCCC(C)C)[C@@]4(C)CC[C@@H]32)C1 (stereo partly shown) [E0178]
[1]; [6]
  Final size (nm): 94.67 nm
[1]; [7]
  Final size (nm): 88.39 nm
[1]; Table 10
  Final size: 94.67
[2]
  pKa: 5.92
[3]
  inhibition at 3 mg/kg: 0%
[4]; 1 × 0.1 mg siRNA/kg
  PLK1 inhibition %: 0%
[4]; 0.1 mg/kg
  % KD: 0%
[4]; 1.0 mg/kg
  % KD: 35%

## CCCCCCCC/C=C\CCCCCCCCOCC(CN1CCCC(C)C1)OCCOCCO[C@H]1CC[C@@]2(C)C(=CC[C@H]3[C@@H]4CC[C@H]([C@H](C)CCCC(C)C)[C@@]4(C)CC[C@@H]32)C1 (stereo partly shown) [E0119]
[1]; [8]
  Final size (nm): 99.37 nm
[1]; Table 10
  Final size: 99.37
[2]
  pKa: 5.82
[3]
  inhibition at 3 mg/kg: 22%
[4]; 1 × 1 mg siRNA/kg
  PLK1 inhibition %: 40%

## CCCCCCCC/C=C\CCCCCCCCOCC(CN1CCOCC1)OCCOCCO[C@H]1CC[C@@]2(C)C(=CC[C@H]3[C@@H]4CC[C@H]([C@H](C)CCCC(C)C)[C@@]4(C)CC[C@@H]32)C1 (stereo partly shown) [E0085]
[1]; [9]
  Final size (nm): 76.8 nm
[1]; LNP formulation with PLK1 siRNA, helper, neutral and stealth lipid, molar ratio and N/P as in the table, stealth lipid S004, molar ratio 50/38/10/2, N/P 4
  Final size (nm): 88.33 nm
[1]; [6]
  Final size (nm): 87.74 nm
[1]; LNP formulation with PLK1 siRNA, helper, neutral and stealth lipid, molar ratio and N/P as in the table, stealth lipid S004, molar ratio 50/48/0/2, N/P 4
  Final size (nm): 96.42 nm
[1]; LNP formulation with PLK1 siRNA, helper, neutral and stealth lipid, molar ratio and N/P as in the table, stealth lipid S004, molar ratio 60/38/2, N/P 4
  Final size (nm): 90.06 nm
[1]; LNP formulation with PLK1 siRNA, helper, neutral and stealth lipid, molar ratio and N/P as in the table, stealth lipid S011, molar ratio 40/48/10/2, N/P 4
  Final size (nm): 81.83 nm
[1]; Table 10
  Final size: 76.8
[2]
  pKa: 5.32
[3]
  inhibition at 3 mg/kg: 40%
[4]; 1 × 0.1 mg siRNA/kg
  PLK1 inhibition %: 53%
[4]; 1 × 2 mg siRNA/kg
  PLK1 inhibition %: 62%
[4]; 1 × 5 mg siRNA/kg
  PLK1 inhibition %: 69%
[4]; 1 × 10 mg siRNA/kg
  PLK1 inhibition %: 55%

## CCCCC/C=C\C/C=C\CCCCCCCCOCC(CN1CCCCC1)OCCOC(=O)CCC(=O)O[C@H]1CC[C@@]2(C)C(=CC[C@H]3[C@@H]4CC[C@H]([C@H](C)CCCC(C)C)[C@@]4(C)CC[C@@H]32)C1 (stereo partly shown) [E0104]
[1]; Table 11, lipid molar ratio 45/43/10/2
  Final size: 87.59
[1]; Table 11, lipid molar ratio 50/48/2
  Final size: 95.05
[2]
  pKa: 6.1
[3]
  inhibition at 3 mg/kg: 32%
[4]; 1 × 1 mg siRNA/kg, stealth lipid S004, molar ratio 50/48/2, N/P 3
  PLK1 inhibition %: 48%
[4]; 1 × 1 mg siRNA/kg, stealth lipid S004, molar ratio 50/48/2, N/P 4
  PLK1 inhibition %: 50%
[5]; 1 × 5 mg/kg iv
  inhibition at 5 mg/kg: 55%
[5]; 1 × 10 mg/kg iv
  inhibition at 10 mg/kg: 50%

## CCCCC/C=C\C/C=C\CCCCCCCCOC[C@@H](CN1CCC[C@@H]1C)OCCCOC(=O)CCC(=O)O[C@H]1CC[C@@]2(C)C(=CCC3C2CC[C@@]2(C)C3CC[C@@H]2[C@H](C)CCCC(C)C)C1 (stereo partly shown) [E0161]
[1]; [8]
  Final size (nm): 101.4 nm
[1]; Table 10
  Final size: 101.4
[2]
  pKa: 6.3
[3]
  inhibition at 3 mg/kg: 0%
[4]; 1 × 1 mg siRNA/kg
  PLK1 inhibition %: 45%

## CCCCC/C=C\C/C=C\CCCCCCCCOCC(CN1CCCCC1)OCCO[C@H]1CC[C@@]2(C)C(=CC[C@H]3[C@@H]4CC[C@H]([C@H](C)CCCC(C)C)[C@@]4(C)CC[C@@H]32)C1 (stereo partly shown) [E0076]
[1]; [9]
  Final size (nm): 80.98 nm
[1]; [7]
  Final size (nm): 86.03 nm
[1]; LNP formulation with PLK1 siRNA, helper, neutral and stealth lipid, molar ratio and N/P as in the table, stealth lipid S011, molar ratio 60/38/2, N/P 4
  Final size (nm): 89.89 nm
[1]; Table 10
  Final size: 86.03
[1]; [10]
  Final size (nm): 89.47 nm
  PDI: 0.143
[2]
  pKa: 5.85
[3]
  inhibition at 3 mg/kg: 35%
[4]; 1 × 0.1 mg siRNA/kg
  PLK1 inhibition %: 0%
[4]; 1 × 5 mg siRNA/kg
  PLK1 inhibition %: 85%
Factor VII
  FVII inhib %: 29.3%

## CCCCC/C=C\C/C=C\CCCCCCCCOCC(CN1CCOCC1)OCCOCCNC(=O)O[C@H]1CC[C@@]2(C)C(=CC[C@H]3[C@@H]4CC[C@H]([C@H](C)CCCC(C)C)[C@@]4(C)CC[C@@H]32)C1 (stereo partly shown) [E0176]
[1]; [8]
  Final size (nm): 99.14 nm
[1]; Table 10
  Final size: 99.14
[2]
  pKa: 5.56
[3]
  inhibition at 3 mg/kg: 37%
[4]; 1 × 1 mg siRNA/kg
  PLK1 inhibition %: 36%
